Experimental data from ChEMBL document CHEMBL6096739, “The Myxobacterial Genus Archangium: A Prolific and Underexploited Source of Bioactive Secondary Metabolites” (J Med Chem, 2025).
In brackets after ≈: the same amount, converted by molar mass. Numbered stars: 1 amine (or outer) side, 2 acyl side, 3 side chain; on linkers, the order of the positions; unused ones are H or OH. Square brackets hold non-standard residues; d marks the D form. Peptide text beside a SMILES is read from it. X1 = COc1cccc2[nH]c(C)c(C[C@H](N[*:1])C(=O)[*:2])c12; dAla(ψthiazole) = C[C@@H](N[*:1])c1nc(C(=O)[*:2])cs1; Trp(4-OMe) = COc1cccc2[nH]cc(C[C@H](N)C(=O)O)c12; X2 = O=C(c1csc([C@@H](CO)N[*:1])n1)[*:2]; GlyΨ(Thz) = O=C(c1csc(CN[*:1])n1)[*:2]; dAbu = CC[C@@H](N)C(=O)O; Dha = C=C(N)C(=O)O; Sar = CNCC(=O)O

Assays:
[1] = Toxicity in po dosed rat assessed as lethal dose; assay type: organism-based; set-up: unit not given here; settings: in vivo
[2] = Cytotoxicity against mouse L929 cells assessed reduction in cell viability incubated for 24 hrs by MTT assay; assay type: toxicity, cell-based
[3] = tested on: KB; assay: Cytotoxicity against human KB cells assessed as reduction in cell viability measured after 72 hrs by MTT assay; assay type: functional, cell-based
[4] = tested on: Botrytis cinerea; assay: Antifungal activity against Botrytis cinerea; assay type: functional
[5] = tested on: Metschnikowia pulcherrima; assay: Antifungal activity against Metschnikowia pulcherrima DSM 70321; assay type: functional
[6] = tested on: Globisporangium debaryanum; assay: Antifungal activity against Pythium debaryanum DSM 62946; assay type: functional
[7] = tested on: Clostridium perfringens; assay: Antibacterial activity against Clostridium perfringens assessed as bacterial growth inhibition after 24 hrs by microdilution method; assay type: functional
[8] = tested on: U-937; assay: Cytotoxicity activity against human U-937 cells assessed as reduction in cell viability measured after 24 hrs by CCK-8 assay; assay type: functional, cell-based
[9] = tested on: HCT-116; assay: Cytotoxicity against human HCT-116 cells assessed as reduction in cell growth measured after 72 hrs by MTT assay; assay type: functional, cell-based; settings: HCT-116, 72 h
[10] = tested on: Pseudomonas aeruginosa; assay: Antibacterial activity against Pseudomonas aeruginosa ATCC 27853 assessed as bacterial growth inhibition; assay type: functional, organism-based

C/C=C1/NC(=O)[C@@H]2CSC(=N2)[C@@H]2CCCN2C(=O)[C@@H](CC(C)C)NC(=O)[C@H](C)NC(=O)[C@@H](O)COC(=O)[C@H](C(C)C)N(C)C(=O)[C@H]([C@@H](C)O)NC(=O)[C@@H]2CCCCN2C1=O
LD50 [1]: 2.3

CC1=C(/C=C/C=C\C=C\[C@@H](C)[C@@H](O)/C(C)=C/CC(C)C)OC(C)(O)C1=O (some centres not stated)
IC50 at 24 h [2]: 1000 nM

C=C1NC(=O)[C@@H](CC)NC(=O)CNC(=O)[C@H](Cc2c[nH]c3cccc(OC)c23)NC(=O)[C@H](Cc2c[nH]c3ccccc23)NC(=O)c2csc(n2)[C@@H](CO)NC(=O)CN(C)C1=O (cyclo([Dha][Sar][X2]W[Trp(4-OMe)]G[dAbu]))
IC50 [3]: 5 nM

COCC(C)C1=NC(c2nc(/C=C/[C@H](OC)[C@@H](C)/C(=C\C(=O)OC)OC)cs2)CS1 (some centres not stated)
MIC [4]: 0.04 µg/mL (≈ 0.088 µM)
MIC [5]: 0.04 µg/mL (≈ 0.088 µM)
MIC [6]: 0.0947 µM (≈ 0.0431 µg/mL)

C=C(NC(=O)/C(C)=C/C=C\CCCCCC(C)C)C(=O)N/C(=C\OC)C(=O)OC
IC50 at 24 h [2]: 3100 nM

C=C(C)c1nc(-c2nc(/C=C/[C@H](OC)[C@@H](C)/C(=C\C(=O)OC)OC)cs2)cs1
MIC [4]: 0.04 µg/mL (≈ 0.0951 µM)
MIC [5]: 0.04 µg/mL (≈ 0.0951 µM)
MIC [6]: 0.0947 µM (≈ 0.0398 µg/mL)

COC(=O)/C=C(/OC)[C@H](C)[C@H](/C=C/c1csc(-c2csc(C(C)=O)n2)n1)OC
MIC [4]: 0.04 µg/mL (≈ 0.0947 µM)
MIC [5]: 0.04 µg/mL (≈ 0.0947 µM)
MIC [6]: 0.0947 µM (≈ 0.04 µg/mL)

C/C1=C\C=C=CCCC/C=C/[C@H]2O[C@@H](C(=O)O[C@H](C)[C@H]1O)[C@@H](O)[C@@H]2O
MIC [7]: 2.5 µg/mL (≈ 7.13 µM)

OCc1ccnc2ccccc12
MIC [5]: < 1 µg/mL

C=C1NC(=O)[C@@H](CC)NC(=O)CNC(=O)[C@H](Cc2c(C)[nH]c3cccc(OC)c23)NC(=O)[C@H](Cc2c[nH]c3ccccc23)NC(=O)c2csc(n2)[C@@H](C)NC(=O)CN(C)C1=O (cyclo(W[X1]G[dAbu][Dha][Sar][dAla(ψthiazole)]))
IC50 [3]: 5 nM

C=C(NC(=O)/C(C)=C/C=C\CCCCC(C)C)C(=O)N/C(=C\OC)C(=O)OC
IC50 at 24 h [2]: 3100 nM

O=C(CO)c1c[nH]c2ccccc12
MIC [5]: < 1 µg/mL

C=C1NC(=O)[C@@H](C)NC(=O)CNC(=O)[C@H](Cc2c[nH]c3cccc(OC)c23)NC(=O)[C@H](Cc2c[nH]c3ccccc23)NC(=O)c2csc(n2)[C@@H](C)NC(=O)CN(C)C1=O (cyclo(W[Trp(4-OMe)]G[dA][Dha][Sar][dAla(ψthiazole)]))
IC50 [3]: 5 nM

CCC(=O)OCN(C(=O)[C@@H](NC(=O)[C@H]1CCCCN1C)[C@@H](C)CC)[C@H](C[C@@H](OC(C)=O)c1nc(C(=O)N[C@@H](Cc2ccc(O)cc2)C[C@H](C)C(=O)O)cs1)C(C)C
IC50 ([8]; Homo sapiens, U-937, 24 h): 0.005 nM

CCCC(=O)OCN(C(=O)[C@@H](NC(=O)[C@H]1CCCCN1C)[C@@H](C)CC)[C@H](C[C@@H](OC(C)=O)c1nc(C(=O)N[C@@H](Cc2ccc(O)cc2)C[C@H](C)C(=O)O)cs1)C(C)C [TUBULYSIN B]
IC50 ([8]; Homo sapiens, U-937, 24 h): 0.005 nM

CC[C@H](C)[C@H](NC(=O)[C@H]1CCCCN1C)C(=O)N(COC(C)=O)[C@H](C[C@@H](OC(C)=O)c1nc(C(=O)N[C@@H](Cc2ccccc2)C[C@H](C)C(=O)O)cs1)C(C)C
IC50 ([8]; Homo sapiens, U-937, 24 h): 0.005 nM

O=C(O)c1ccnc2ccccc12
MIC [5]: < 1 µg/mL

CCCC(=O)OCN(C(=O)[C@@H](NC(=O)[C@H]1CCCCN1C)[C@@H](C)CC)[C@H](C[C@@H](OC(C)=O)c1nc(C(=O)N[C@@H](Cc2ccccc2)C[C@H](C)C(=O)O)cs1)C(C)C
IC50 ([8]; Homo sapiens, U-937, 24 h): 0.005 nM

C=C1NC(=O)[C@@H](C)NC(=O)CNC(=O)[C@H](Cc2c[nH]c3cccc(OC)c23)NC(=O)[C@H](Cc2c[nH]c3ccccc23)NC(=O)c2csc(n2)CNC(=O)CN(C)C1=O (cyclo([Dha][Sar][GlyΨ(Thz)]W[Trp(4-OMe)]G[dA]))
IC50 [3]: 5 nM

CC[C@H](C)[C@H](NC(=O)[C@H]1CCCCN1C)C(=O)N(COC(=O)CC(C)C)[C@H](C[C@@H](OC(C)=O)c1nc(C(=O)N[C@@H](Cc2ccc(O)cc2)C[C@H](C)C(=O)O)cs1)C(C)C [TUBULYSIN-A]
IC50 ([8]; u-937): 0.005 nM

C/C=C1/NC(=O)[C@@H]2CSC(=N2)[C@@H]2CCCN2C(=O)[C@@H](CC(C)C)NC(=O)[C@H](C)NC(=O)[C@@H](O)COC(=O)[C@H](C(C)C)N(C)C(=O)[C@H]([C@@H](C)O)NC(=O)[C@@H]2CCCN2C1=O
LD50 [1]: 2.3

O/N=C\c1ccnc2ccccc12
MIC [5]: < 1 µg/mL

N#CCc1c[nH]c2ccccc12
MIC [5]: < 1 µg/mL

COC(=O)/C=C(/OC)[C@H](C)[C@H](/C=C/c1csc(-c2csc(C3(C)CO3)n2)n1)OC (some centres not stated)
MIC [4]: 0.04 µg/mL (≈ 0.0916 µM)
MIC [5]: 0.04 µg/mL (≈ 0.0916 µM)
MIC [6]: 0.0947 µM (≈ 0.0413 µg/mL)

C=C(NC(=O)/C(C)=C/C=C\CCCCCCC)C(=O)N/C(=C\OC)C(=O)OC
IC50 at 24 h [2]: 3100 nM

C=C1NC(=O)[C@@H](C)NC(=O)CNC(=O)[C@H](Cc2c(C)[nH]c3cccc(OC)c23)NC(=O)[C@H](Cc2c[nH]c3ccccc23)NC(=O)c2csc(n2)[C@@H](C)NC(=O)CN(C)C1=O (cyclo(W[X1]G[dA][Dha][Sar][dAla(ψthiazole)]))
IC50 [3]: 5 nM

C=C1NC(=O)[C@@H](C)NC(=O)CNC(=O)[C@H](Cc2c[nH]c3cccc(OC)c23)NC(=O)[C@H](Cc2c[nH]c3ccccc23)NC(=O)c2csc(n2)[C@@H](CO)NC(=O)CN(C)C1=O (cyclo([Dha][Sar][X2]W[Trp(4-OMe)]G[dA]))
IC50 [3]: 5 nM

CC[C@H](C)[C@H](NC(=O)[C@H]1CCCCN1C)C(=O)N(COC(=O)CC(C)C)[C@H](C[C@@H](OC(C)=O)c1nc(C(=O)N[C@@H](Cc2ccccc2)C[C@H](C)C(=O)O)cs1)C(C)C [TUBULYSIN D]
IC50 ([8]; Homo sapiens, U-937, 24 h): 0.005 nM
IC50 [9]: 0.003 nM

CC[C@H](C)[C@H](NC(=O)[C@H]1CCCCN1C)C(=O)N(COC(=O)C=C(C)C)[C@H](C[C@@H](OC(C)=O)c1nc(C(=O)N[C@@H](Cc2ccc(O)cc2)C[C@H](C)C(=O)O)cs1)C(C)C
IC50 ([8]; Homo sapiens, U-937, 24 h): 0.005 nM

CCC(=O)OCN(C(=O)[C@@H](NC(=O)[C@H]1CCCCN1C)[C@@H](C)CC)[C@H](C[C@@H](OC(C)=O)c1nc(C(=O)N[C@@H](Cc2ccccc2)C[C@H](C)C(=O)O)cs1)C(C)C
IC50 ([8]; Homo sapiens, U-937, 24 h): 0.005 nM

CC1=C(C[C@H](O)/C=C\C=C\[C@@H](C)[C@@H](O)/C(C)=C/CC(C)C)OC(C)(O)C1=O (some centres not stated)
IC50 at 24 h [2]: 1000 nM

C/C=C1\NC(=O)[C@H]2CSC(=N2)[C@@H]2C[C@@H](C)N2C(=O)[C@@H](CC(C)C)NC(=O)[C@H](C)NC(=O)[C@@H](O)COC(=O)[C@H](C(C)C)N(C)C(=O)[C@H]([C@@H](C)O)NC(=O)[C@@H]2CCCCN2C1=O
LD50 [1]: 2.3

C=C/C=C(\C)[C@@H](O)CC[C@@H](C)/C=C/[C@@H]1CC[C@@H](C)C(=O)CC(=O)N[C@@H](C)CCC(=O)[C@@H](C)[C@H](O)[C@@H](C)/C=C(\C)C(=O)O1
MIC [7]: 0.78 µg/mL (≈ 1.33 µM)

O=Cc1ccnc2ccccc12
MIC [5]: < 1 µg/mL

COC(=O)/C=C(/OC)[C@H](C)[C@H](/C=C/c1csc(C2CSC(C(C)C)=N2)n1)OC (some centres not stated)
MIC [4]: 0.04 µg/mL (≈ 0.0942 µM)
MIC [5]: 0.04 µg/mL (≈ 0.0942 µM)
MIC [6]: 0.0947 µM (≈ 0.0402 µg/mL)

COC(=O)/C=C(/OC)[C@H](C)[C@H](/C=C/c1csc(C2CSC(C3(C)CO3)=N2)n1)OC (some centres not stated)
MIC [4]: 0.04 µg/mL (≈ 0.0912 µM)
MIC [5]: 0.04 µg/mL (≈ 0.0912 µM)
MIC [6]: 0.0947 µM (≈ 0.0415 µg/mL)

C=C(C)C1=NC(c2nc(/C=C/[C@H](OC)[C@@H](C)/C(=C\C(=O)OC)OC)cs2)CS1 (some centres not stated)
MIC [4]: 0.04 µg/mL (≈ 0.0947 µM)
MIC [5]: 0.04 µg/mL (≈ 0.0947 µM)
MIC [6]: 0.0947 µM (≈ 0.04 µg/mL)

C/C=C1\NC(=O)[C@H]2CSC(=N2)[C@@H]2C[C@@H](C)N2C(=O)[C@@H](CC(C)C)NC(=O)[C@H](C)NC(=O)[C@@H](O)COC(=O)[C@H](C(C)C)N(C)C(=O)[C@H]([C@@H](C)O)NC(=O)[C@@H]2CCCN2C1=O
LD50 [1]: 2.3

CC[C@H](C)[C@H](NC(=O)[C@H]1CCCCN1C)C(=O)N(COC(C)=O)[C@H](C[C@@H](OC(C)=O)c1nc(C(=O)N[C@@H](Cc2ccc(O)cc2)C[C@H](C)C(=O)O)cs1)C(C)C
IC50 ([8]; Homo sapiens, U-937, 24 h): 0.005 nM

O/N=C/Cc1c[nH]c2ccccc12
MIC [5]: < 1 µg/mL

C=C1NC(=O)[C@@H](CC)NC(=O)CNC(=O)[C@H](Cc2c[nH]c3cccc(OC)c23)NC(=O)[C@H](Cc2c[nH]c3ccccc23)NC(=O)c2csc(n2)[C@@H](C)NC(=O)CN(C)C1=O (cyclo([Dha][Sar][dAla(ψthiazole)]W[Trp(4-OMe)]G[dAbu]))
IC50 [10]: 0.05 µg/mL (≈ 0.0596 µM)
IC50 [3]: 5 nM
